Reference: US9115133B2, “Substituted fused tricyclic compounds, compositions and medicinal applications thereof” (Advinus Therapeutics Limited, priority 2011, dated 2015)

Tests used:
[1] = target: T1, Recombinant JAK1 (Amino acids 850-1154) (Homo sapiens, UniProt P23458); assay: Kinase-Glo Luminescent Kinase Assay, recombinant JAK1; assay type: biochemical; details: 200 μg/ml Poly Glu-Tyr (4:1), ATP 1 uM, 90 min room temperature, luminescence
T1 construct: Recombinant JAK1 (Amino acids 850-1154; NM_002227.2); made in house; host or cells: baculovirus expression system (Bac-to-Bac)
T1 sequence (P23458 850-1154): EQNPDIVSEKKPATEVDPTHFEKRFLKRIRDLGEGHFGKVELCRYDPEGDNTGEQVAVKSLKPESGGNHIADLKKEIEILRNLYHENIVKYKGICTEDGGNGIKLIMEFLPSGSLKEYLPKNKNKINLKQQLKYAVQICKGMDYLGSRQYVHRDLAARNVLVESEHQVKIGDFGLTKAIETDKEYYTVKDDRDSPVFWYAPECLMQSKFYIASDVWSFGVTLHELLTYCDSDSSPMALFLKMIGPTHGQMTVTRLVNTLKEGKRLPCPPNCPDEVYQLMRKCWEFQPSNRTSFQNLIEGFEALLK
Source text: (§1) Recombinant JAK1 (Amino acids 850-1154; NM_002227.2), JAK2 (Amino acids 808-1132; NM_004972.3) and JAK3 (Amino acids 781-1124; NM_000215.3) used in the studies were expressed using Invitrogen's Bac-to-Bac baculovirus expression system according to manufacturer's instructions. Adenosine 5′-triphosphate was obtained from Sigma Aldrich chemicals (Cat # A7699). Poly Glu-Tyr (4:1) sodium salt was obtained from Sigma Aldrich (Cat # P0275), Kinase Glo® Luminescent Kinase assay kit was obtained from Promega (Cat # V6713) Kinase activity was assessed by Promega Kinase-Glo® Luminescent Kinase Assay kit using 200 μg/ml Poly Glu-Tyr (4:1) as substrate and ATP at 1 uM concentration. The reactions were carried out in 384 well plates in total reaction volume of 20 uL. Reaction mixtures contained 50 mM HEPES pH 7.4, 5 mM MgCl2, 1 mM DTT, 0.01% BSA, 0.01% Tween 20. Kinase was pre-incubated with compounds or 1% DMSO for 5 min before addition of substrate and ATP to check for inhibition. Kinase reactions were carried out at room temperature for 90 min. The reactions were stopped by adding 5 μl of Kinase Glo® reagent & 10 μl of reaction mixture followed by measuring luminescence. The luminescent signal is correlated with the amount of ATP present at the end of kinase reaction and is inversely correlated with the amount of kinase activity. For each data point, % inhibition is calculated based on uninhibited reaction (without compound) which is considered as 100% activity over no enzyme or substrate controls. Dose response data is then fit using a four parameter logistic equation using Graph-pad Prism 5 software to determine inhibition constant 50 (IC50).

[2] = target: T2, Recombinant JAK3 (Amino acids 781-1124) (Homo sapiens, UniProt P52333); assay: Kinase-Glo Luminescent Kinase Assay, recombinant JAK3; assay type: biochemical; details: 200 μg/ml Poly Glu-Tyr (4:1), ATP 1 uM, 90 min room temperature, luminescence
T2 construct: JAK3 (Amino acids 781-1124; NM_000215.3); made in house; host or cells: baculovirus expression system (Bac-to-Bac)
T2 sequence (P52333 781-1124): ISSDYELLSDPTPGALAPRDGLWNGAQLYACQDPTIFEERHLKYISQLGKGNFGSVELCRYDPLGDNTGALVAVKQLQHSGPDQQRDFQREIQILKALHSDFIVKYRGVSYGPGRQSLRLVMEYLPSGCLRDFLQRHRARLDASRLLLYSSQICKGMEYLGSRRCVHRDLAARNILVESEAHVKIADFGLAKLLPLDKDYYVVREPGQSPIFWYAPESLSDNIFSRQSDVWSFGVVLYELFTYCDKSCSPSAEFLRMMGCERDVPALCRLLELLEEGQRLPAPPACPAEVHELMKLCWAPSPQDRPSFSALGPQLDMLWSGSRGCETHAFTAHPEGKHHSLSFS
Source text: as §1

Row | SMILES | IC50 [1] [nM] | IC50 [2] [nM]
1 | CC(C)CNC(=O)C1CCCN(c2ccnc3cnc4[nH]ccc4c23)C1 (stereo not drawn) [Ex. 67, N-isobutyl-1-(3H-pyrrolo[3,2-f][1,7]naphthyridin-9-yl)piperidine-3-carboxamide] | > 20 | > 20
2 | CN(C(=O)CC1CC1)C1CCCN(c2ccnc3cnc4[nH]ccc4c23)C1 (stereo not drawn) [Ex. 63, 2-cyclopropyl-N-methyl-N-[1-(3H-pyrrolo[3,2-f][1,7]naphthyridin-9-yl)-3-piperidyl]acetamide] | > 20 | > 20
3 | CN(CC(F)(F)F)C(=O)C1CCN(c2ccnc3cnc4[nH]ccc4c23)CC1 [Ex. 82, N-methyl-1-(3H-yrrolo[3,2-f][1,7]naphthyridin-9-yl)-N-(2,2,2-trifluoroethyl) piperidine-4-carboxamide] | > 20 | 1 to 20
4 | CS(=O)(=O)NC1CCCN(c2ccnc3cnc4[nH]ccc4c23)C1 (stereo not drawn) [Ex. 73, N-[1-(3H-pyrrolo[3,2-f][1,7]naphthyridin-9-yl)-3-piperidyl] methanesulfonamide] | > 20 | 1 to 20
5 | O=S(=O)(CC(F)(F)F)N1CCN(c2ccnc3cnc4[nH]ccc4c23)CC1 [Ex. 104, 9-[4-(2,2,2-trifluoroethylsulfonyl)piper-azin-1-yl]-3H-pyrrolo[3,2-f][1,7]naphthyridine] | > 20 | > 20
6 | CC(C)NC(=O)C1CCN(c2ccnc3cnc4[nH]ccc4c23)CC1 [Ex. 75, N-isopropyl-1-(3H-pyrrolo[3,2-f][1,7]naphthyridin-9-yl)piperidine-4-carboxamide] | > 20 | > 20

The remaining lines, values ahead:

Row | IC50 [1] [nM] | IC50 [2] [nM] | SMILES
7 | > 20 | 1 to 20 | CC1CCC(C(=O)NC2CC2)CN1c1ccnc2cnc3[nH]ccc3c12 (single isomer, unassigned) [Ex. 88B, trans-N-cyclopropyl-6-methyl-1-(3H-pyrrolo[3,2-f][1,7]naphthyridin-9-yl)piperidine-3-carboxamide]
8 | > 20 | > 20 | O=C(CC(F)(F)F)N1CCC(c2ccnc3cnc4[nH]ccc4c23)CC1 [Comp. 88, 3,3,3-trifluoro-1-[4-(3H-pyrrolo[3,2-f][1,7]naphthyridin-9-yl)-1-piperidyl]propan-1-one]
9 | > 20 | 1 to 20 | CC1CCC(C(=O)NC2CC2)CN1c1ccnc2cnc3[nH]ccc3c12 (single isomer, unassigned) [Ex. 88A, cis-N-cyclopropyl-6-methyl-1-(3H-pyrrolo[3,2-f][1,7]naphthyridin-9-yl)piperidine-3-carboxamide]
10 | 1 to 20 | 1 to 20 | O=C(C1CC1)N1CCCC(c2ccnc3cnc4[nH]ccc4c23)C1 (stereo not drawn) [Ex. 2, cyclopropyl-[3-(3H-pyrrolo[3,2-f][1,7]naphthyridin-9-yl)-1-piperidyl]methanone]
11 | 1 to 20 | 1 to 20 | N#CCS(=O)(=O)N1CCCC(c2ccnc3cnc4[nH]ccc4c23)C1 (stereo not drawn) [Ex. 7, 2-[[3-(3H-pyrrolo[3,2-f][1,7]naphthyridin-9-yl)-1-piperidyl]sulfonyl]acetonitrile]
12 | 1 to 20 | 1 to 20 | CC(C)CS(=O)(=O)N1CCCC(c2ccnc3cnc4[nH]ccc4c23)C1 (stereo not drawn) [Ex. 8, 9-(1-isobutylsulfonyl-3-piperidyl)-3H-pyrrolo[3,2-f][1,7]naphthyridine]
13 | 1 to 20 | 1 to 20 | O=C(CC(F)(F)F)N1CCCC(c2ccnc3cnc4[nH]ccc4c23)C1 (stereo not drawn) [Ex. 4, 3,3,3-trifluoro-1-[3-(3H-pyrrolo[3,2-f][1,7]naphthyridin-9-yl)-1-piperidyl]propan-1-one]
14 | 1 to 20 | > 20 | CN(C(=O)C1CCCN(c2ccnc3cnc4[nH]ccc4c23)C1)C1CC1 (stereo not drawn) [Ex. 79, N-cyclopropyl-N-methyl-1-(3H-pyrrolo[3,2-f][1,7]naphthyridin-9-yl)piperidine-3-carboxamide]
15 | 1 to 20 | 1 to 20 | CN(CC(F)(F)F)C(=O)C1CCCN(c2ccnc3cnc4[nH]ccc4c23)C1 (stereo not drawn) [Ex. 80, N-methyl-1-(3H-pyrrolo[3,2-f][1,7]naphthyridin-9-yl)-N-(2,2,2-trifluoroethyl)piperidine-3-carboxamide]
